This note sets out measurements from patent publication US20040034021A1, “Intravenous rifalazil formulation and methods of use thereof” (priority 2002, published 2004).

In brackets after ≈: the same amount, converted by molar mass.

Broadly, the MIC is the least concentration at which growth counts as inhibited.

One data set concerns S. aureus. Briefly: MIC by broth microdilution method. In kind it is cell-based. To be noted: Staphylococcus aureus, CAMH broth, vehicle as in Example 2, 35-37° C., 20-24 hours. How it is done: The MIC (minimum inhibitory concentration) of rifalazil against S. aureus was determined by the broth microdilution method. A vehicle prepared as described in Example 2 was diluted in Cation Adjusted Mueller-Hinton (CAMH) broth to create working solutions that were 4× the maximum concentration to be tested on each microtiter plate. The 4× working solutions were added to the wells of the 96 well microtiter plate and serially diluted two-fold across 11 wells into CAMH.
To prepare the test strain inoculum, 3-5 colonies of S. aureus from a pure 18-24 hour culture grown on a primary agar plate were emulsified into demineralized water and adjusted to a 0.5 McFarland turbidity standard using a calibrated nephelometer. This suspension was then diluted further (1:100) into CAMH broth to yield an inoculum suspension containing approximately 10^6 CFU/ml. Aliquots of the inoculum suspension were added to the rifalazil-containing wells to yield a final concentration in the well of 1-8×10^5 CFU/ml. The microtiter plates were incubated at 35-37° C. for 20-24 hours. The MIC was read as the lowest concentration of the compound that inhibits visible growth.

The nature of data set [1]: stability against hydrolytic degradation to des-acetyl rifalazil (HPLC). In kind it is physicochemical. How it is done:
Rifalazil solutions containing the micelle-forming excipient PEG-35 castor oil, prepared as described in Example 2, and without a micelle-forming excipient (15% ethanol, phosphate buffer pH=7.6, 0.9% NaCl) were monitored for stability against the hydrolytic degradation of rifalazil at temperatures of 25° C., 40° C., 50° C., and 60° C. (see FIGS. 7 and 8). The degradation was monitored for several days by HPLC for the disappearance of rifalazil or the appearance of des-acetyl rifalazil, the degradation product that results from the hydrolysis of rifalazil.

A short description of data set [2]: solubility of rifalazil in aqueous test solutions (UV-Vis). In kind it is physicochemical. How it is done: In order to determine its solubility, to a vial containing solid rifalazil was added a volume of aqueous test solution. The vial was capped and sonicated for about an hour and the remaining undissolved solids were left to settle overnight. The vial was then vortexed for 1 minute, sonicated for another 30 minutes, and centrifuged for 1 hour at 3500 RPM. The supernatent was separated from undissolved rifalazil. The concentration of rifalazil in the test solution was determined by UV-Vis absorbance using a suitable spectrophotometer. Using this method, the solubility of rifalazil was determined as a function of pH (see FIG. 1); in PEG 400-water, propylene glycol-water, and ethanol-water mixtures (see FIG. 2); in Tween-40-water and Tween-80-water mixtures (see FIG. 3); in dodecyltrimethylammonium bromide-water, sodium chenodeoxycholate-water, sodium Octylsulfate-water, sodium deoxycholate-water, sodium cholate-water, and sodium dodecylsulfate-water mixtures (see FIG. 4); in sodium dodecylsulfate- water mixtures at pH 5.4 and 7.4 (see FIG. 5); and in PEG-35 castor oil-water mixtures (see FIG. 6).

`CO[C@H]1/C=C/O[C@@]2(C)Oc3c(C)c(O)c4c(=O)c(c5oc6cc(N7CCN(CC(C)C)CC7)cc(O)c6nc-5c4c3C2=O)NC(=O)/C(C)=C\C=C\[C@H](C)[C@H](O)[C@@H](C)[C@@H](O)[C@@H](C)[C@H](OC(C)=O)[C@@H]1C` [Rifalazil, rifalazil]: in the data set on S. aureus, the MIC amounted to 0.015 µg/mL (≈ 0.0159 µM). Moreover, in data set [1] (PEG-35 castor oil solution of Example 2 vs 15% ethanol, phosphate buffer pH 7.6, 0.9% NaCl, 25-60° C. (FIGS. 7 and 8)), the “effect of micelle-forming excipient on hydrolytic degradation of rifalazil” value is given as “inhibits the hydrolytic degradation”. Also, the “hydrolytic degradation of rifalazil” value in data set [1] (aqueous environments under ambient conditions, no micelle-forming excipient (FIG. 8)) is recorded as “occurs readily”. Besides, in data set [2] (water at pH 7 (FIG. 1)), the “ratio of 100 μg/mL (typical low IV dosage concentration) to solubility of the drug in water” value is on record as 5,000 times. For the same compound, the solubility in water entry in data set [2] (water at physiological pH) is reported as “virtually insoluble”.
